One data set deals with PARG (Homo sapiens, UniProt Q86W56). The experiment in a line: Biochemical assay (PARG, TFMU-ADPr substrate). Particulars: PARG, TFMU-ADPr substrate.
Another data set deals with HCC1806. Nature of the data set: Cell viability assay (CellTiter-Glo). Format: cell-based, Human. Conditions: Homo sapiens, HCC1806, 168 h, HCC1806, 7 days, CellTiter-Glo; read-out: IC50 (nM) in cell viability assay.
In a further data set the target is T1, PXR (Homo sapiens, UniProt O75469).
T1 construct: host or cells: DPX2 (HepG2)
T1 sequence (O75469 1-434): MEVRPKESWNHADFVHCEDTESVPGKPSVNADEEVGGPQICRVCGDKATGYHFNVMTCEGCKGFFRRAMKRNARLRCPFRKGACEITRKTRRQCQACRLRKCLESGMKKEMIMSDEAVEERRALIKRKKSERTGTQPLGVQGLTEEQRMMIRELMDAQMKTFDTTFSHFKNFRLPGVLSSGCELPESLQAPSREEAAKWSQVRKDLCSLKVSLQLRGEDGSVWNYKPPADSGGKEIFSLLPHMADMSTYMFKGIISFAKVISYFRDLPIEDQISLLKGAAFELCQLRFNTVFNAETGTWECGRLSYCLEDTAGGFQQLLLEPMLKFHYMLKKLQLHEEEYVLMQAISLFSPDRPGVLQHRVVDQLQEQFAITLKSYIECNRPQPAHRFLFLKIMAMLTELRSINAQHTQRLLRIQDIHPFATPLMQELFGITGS
The experiment in a line: PXR assay (DPX2 luciferase reporter cells). Particulars: 24 h; for PXR Activation @30 uM (% Ctrl): positive control rifampicin. In kind it is cell-based. As to the method: 1) Information of Cell Line
DPX2 (HepG2 cells stably transfected with PXR and luciferase reporter) cells were purchased from Puracyp Inc (Carlsbad, CA).
2) Experimental Procedures a) Reagents and Consumables
The DPX2 cells were cultured in the growth medium containing 1000 fetal bovine serum. The DPX2 cells in a T-75 flask were cultured in the […] incubator at 37° C. with 950% relative humidity, and digested when the cells grew to cover 80-90% of the bottom of the flask.
The surface layer of the T-75 cultured cells was washed with 10 mL of PBS; PBS was pipetted; 3-5 mL of tryp sin was added; the cells were digested at 37° C. for 5 minutes or until the cells were digested to be suspended; and excessive medium containing fetal bovine serum was added to stop trypsinization. The cell suspension was transferred to a conical-bottomed centrifuge tube and centrifuged at 150 g rpm for 5 minutes at room temperature; the supernatant was carefully pipetted; and the cells were resuspended with the treatment medium, with the concentration adjusted to 3.2×10^5 cells/mL (incubation time: 24 hours, plate seeding density: […]). 25 μL of the cell suspension was added to each well of the 384-well cell culture plate.
The cell culture plate was placed and cultured for 24 h in the […] incubator with 9500 humidity at 37° C. c) Formulation of Compound
The stock solution of each of 1000× test compound, the positive control (rifampicin), and the negative control (propranolol) was prepared with DMSO. The final concentrations of the positive control (rifampicin) were 1 μM and 10 μM, and the final concentration of the negative control (propranolol) was 10 μM. The final concentrations of the test compound were 10 μM, 1 μM, 0.1 μM, or EC50 (30 μM, 10 μM, 3 μM, 1 μM, 0.3 μM, 0.1 μM). The final concentration of DMSO was 0.10. The cell culture plate was taken out from the incubator, and 25 nL of the stock solution of the positive control, negative control or test compound was directly added with Echo, each with three parallel concentrations. The cell culture plate was placed in the incubator and continued to be incubated for 24 h. Before starting the assay with the substrate, the cell morphology and the monolayer integrity were checked to ensure that the monolayer was of acceptable research quality. […]
d) Quantitative Detection with PXR Activation
After 24 hours of dosing, the culture could be quantitatively detected with PXR activation. The CellTiter-Fluor™ Cell Viability Assay Kit and One-Glo Luciferase reagent were equilibrated to room temperature. The GF-AFC substrate (10 μL) was added to the assay buffer (10 ml) to develop a 2× reagent, which was then diluted into a 1× reagent with 10 ml of PBS. The ONE-Glo Luciferase substrate was added to the ONE-Glo Luciferase assay buffer. The culture plate was taken out from the incubator; the medium was discarded; 1× of CellTiter-Fluor™ reagent was poured into the loading slot; 25 μL of reagent were added per well to the culture plate with a pipetting workstation; and the culture plate was then incubated in the incubator for 30 minutes. The cell culture plate was taken out from the incubator, and cooled slightly to room temperature; and the fluorescence value was determined with a fully automatic quantitative microplate reader, with the excitation light of 400 nm and the emission light of 505 nm. The ONE-Glo reagent was poured into the loading slot, with 25 μL per well, and the resulting mixture was gently mixed in the plate, and incubated at room temperature for 5 minutes to determine the luminescence value.
A general note: In a reporter assay the amount or activity of a reporter protein is the signal.

As usually defined, the IC50 is the point on the concentration scale where inhibition reaches its midpoint.

Sequence of PARG (Q86W56 whole entry): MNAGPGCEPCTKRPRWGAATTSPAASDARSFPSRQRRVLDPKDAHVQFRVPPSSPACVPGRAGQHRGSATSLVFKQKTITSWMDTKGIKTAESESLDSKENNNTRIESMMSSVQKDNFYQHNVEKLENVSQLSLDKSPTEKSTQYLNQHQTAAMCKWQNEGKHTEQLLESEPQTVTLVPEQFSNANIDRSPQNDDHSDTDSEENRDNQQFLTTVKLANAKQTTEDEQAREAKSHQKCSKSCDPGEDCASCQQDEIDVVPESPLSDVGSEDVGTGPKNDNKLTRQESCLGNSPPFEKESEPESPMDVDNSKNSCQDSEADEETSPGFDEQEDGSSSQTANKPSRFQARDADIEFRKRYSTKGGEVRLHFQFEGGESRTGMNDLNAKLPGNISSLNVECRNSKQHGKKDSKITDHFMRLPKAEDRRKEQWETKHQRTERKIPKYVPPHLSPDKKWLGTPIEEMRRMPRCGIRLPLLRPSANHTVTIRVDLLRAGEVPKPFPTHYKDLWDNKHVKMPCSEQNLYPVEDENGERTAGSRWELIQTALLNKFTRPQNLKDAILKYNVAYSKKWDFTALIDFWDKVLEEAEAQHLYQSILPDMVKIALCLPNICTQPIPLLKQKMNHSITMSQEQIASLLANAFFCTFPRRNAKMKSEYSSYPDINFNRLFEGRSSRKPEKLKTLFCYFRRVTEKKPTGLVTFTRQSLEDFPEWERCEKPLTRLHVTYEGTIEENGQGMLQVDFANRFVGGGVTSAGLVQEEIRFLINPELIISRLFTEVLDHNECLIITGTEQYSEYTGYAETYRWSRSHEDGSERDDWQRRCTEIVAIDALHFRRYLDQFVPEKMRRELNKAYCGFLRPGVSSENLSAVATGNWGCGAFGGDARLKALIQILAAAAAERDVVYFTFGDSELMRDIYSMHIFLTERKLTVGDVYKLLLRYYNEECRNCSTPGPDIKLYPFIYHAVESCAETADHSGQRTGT

For the compound `COC1(C(=O)N2CCN(c3cc(S(=O)(=O)NC4(C)CC4)cn4c(-c5nnc(C(F)(F)F)s5)ncc34)CC2)CC1` [Example 193, 8-(4-(1-methoxycyclopropane-1-carbonyl)piperazin-1-yl)-N-(1-methylcyclopropyl)-3-(5-(trifluoromethyl)-1,3,4-thiadiazol-2-yl)imidazo[1,5-a]pyridine-6-sulfonamide], the results for the IC50 on PARG and in the data set with HCC1806 were 0.36 nM and 5.76 nM, respectively. The “PXR Activation @30 uM (Fold)” value on PXR was determined as 2.4 Fold. Moreover, the “PXR Activation @30 uM (% Ctrl)” value on PXR was 15 % Ctrl.

On to `CN1CC[C@H]1C(=O)N1CCN(c2cc(S(=O)(=O)NC3(C)CC3)cn3c(-c4nnc(C(F)(F)F)s4)ncc23)CC1` [Example 285, (S)-8-(4-(1-methylazetidine-2-carbonyl)piperazin-1-yl)-N-(1-methylcyclopropyl)-3-(5-(trifluoromethyl)-1,3,4-thiadiazol-2-yl)imidazo[1,5-a]pyridine-6-sulfonamide], for which the IC50 at PARG is 20 nM. Further, the IC50 with HCC1806 came to 246 nM. On PXR, the “PXR Activation @30 uM (Fold)” value came out at 1.7 Fold and the “PXR Activation @30 uM (% Ctrl)” value is recorded as 10 % Ctrl.

On PARG, `N#CC1(NS(=O)(=O)c2cc(N3CCN(C(=O)c4ccncc4)CC3)c3cnc(-c4nnc(C(F)(F)F)s4)n3c2)CC1` [Example 254, N-(1-cyanocyclopropyl)-8-(4-isonicotinoylpiperazin-1-yl)-3-(5-(trifluoromethyl)-1,3,4-thiadiazol-2-yl)imidazo[1,5-a]pyridine-6-sulfonamide] had an IC50 of 11.5 nM. Moreover, in the data set on HCC1806, the IC50 was found to be 700 nM. Besides, on PXR, the “PXR Activation @30 uM (Fold)” value came to 1.6 Fold and the “PXR Activation @30 uM (% Ctrl)” value stood at 12 % Ctrl.

For `CN1CC[C@@H]1C(=O)N1CCN(c2cc(S(=O)(=O)NC3(C)CC3)cn3c(-c4nnc(C(F)(F)F)s4)ncc23)CC1` [Example 287, (R)-8-(4-(1-methylazetidine-2-carbonyl)piperazin-1-yl)-N-(1-methylcyclopropyl)-3-(5-(trifluoromethyl)-1,3,4-thiadiazol-2-yl)imidazo[1,5-a]pyridine-6-sulfonamide], the IC50 was 4.37 nM against PARG and 137 nM in the data set with HCC1806. The “PXR Activation @30 uM (Fold)” value at PXR was 1.6 Fold. Besides, the “PXR Activation @30 uM (% Ctrl)” value at PXR is reported as 15 % Ctrl.

`CC1(NS(=O)(=O)c2cc(N3CCN(C(=O)[C@H]4CCCN4)CC3)c3cnc(-c4nnc(C(F)(F)F)s4)n3c2)CC1` [Example 324, (R)-N-(1-methylcyclopropyl)-8-(4-prolylpiperazin-1-yl)-3-(5-(trifluoromethyl)-1,3,4-thiadiazol-2-yl)imidazo[1,5-a]pyridine-6-sulfonamide]: at PARG, the IC50 was found to be 4.29 nM. Further, the IC50 with HCC1806 came out at 205 nM. At PXR, the “PXR Activation @30 uM (Fold)” value came to 1.8 Fold and the “PXR Activation @30 uM (% Ctrl)” value is reported as 14 % Ctrl.

For the compound `CC1(NS(=O)(=O)c2cc(N3CCN(c4ccc[nH]c4=O)CC3)c3cnc(-c4nnc(C(F)(F)F)s4)n3c2)CC1` [Example 336, N-(1-methylcyclopropyl)-8-(4-(2-oxo-1,2-dihydropyridin-3-yl)piperazin-1-yl)-3-(5-(trifluoromethyl)-1,3,4-thiadiazol-2-yl)imidazo[1,5-a]pyridine-6-sulfonamide], the IC50 against PARG came to 54.1 nM; in the data set with HCC1806, 1080 nM. Also, on PXR, the “PXR Activation @30 uM (Fold)” value worked out at 0.3 Fold. Further, the “PXR Activation @30 uM (% Ctrl)” value on PXR is reported as 2 % Ctrl.

For `COC1(C(=O)N2CCN(c3cc(S(=O)(=O)NC4(C)CC4)cn4c(-c5nnc(C(F)F)s5)ncc34)CC2)CNC1` [Example 311, 3-(5-(difluoromethyl)-1,3,4-thiadiazol-2-yl)-8-(4-(3-methoxyazetidine-3-carbonyl)piperazin-1-yl)-N-(1-methylcyclopropyl)imidazo[1,5-a]pyridine-6-sulfonamide], the IC50 against PARG came to 0.21 nM. Besides, the IC50 in the data set on HCC1806 was 234 nM. In addition, at PXR, the “PXR Activation @30 uM (Fold)” value was determined as 1.1 Fold and the “PXR Activation @30 uM (% Ctrl)” value was 5 % Ctrl.

With `CN1CCC1(C)C(=O)N1CCN(c2cc(S(=O)(=O)NC3(C)CC3)cn3c(-c4nnc(C(F)(F)F)s4)ncc23)CC1` (stereo not shown) [Example 330, 8-(4-(1,2-dimethylazetidine-2-carbonyl)piperazin-1-yl)-N-(1-methylcyclopropyl)-3-(5-(trifluoromethyl)-1,3,4-thiadiazol-2-yl)imidazo[1,5-a]pyridine-6-sulfonamide], the IC50 on PARG came out at 6.55 nM. Also, the IC50 with HCC1806 worked out at 194 nM. For the same compound, on PXR, the “PXR Activation @30 uM (Fold)” value came out at 1.3 Fold and the “PXR Activation @30 uM (% Ctrl)” value turned out to be 9 % Ctrl.

On to `CC1(NS(=O)(=O)c2cc(N3CCN(C(=O)[C@@H]4CCN4)CC3)c3cnc(-c4nnc(C(F)(F)F)s4)n3c2)CC1` [Example 284, (S)-8-(4-(azetidine-2-carbonyl)piperazin-1-yl)-N-(1-methylcyclopropyl)-3-(5-(trifluoromethyl)-1,3,4-thiadiazol-2-yl)imidazo[1,5-a]pyridine-6-sulfonamide], for which the IC50 at PARG turned out to be 16.6 nM. Also, in the data set with HCC1806, the IC50 was determined as 310 nM. Besides, on PXR, the “PXR Activation @30 uM (Fold)” value is listed as 1.1 Fold and the “PXR Activation @30 uM (% Ctrl)” value is recorded as 7 % Ctrl.

Take `C[C@H]1CN(c2cc(S(=O)(=O)NC3(C)COC3)cn3c(-c4nnc(C(F)F)s4)ncc23)C[C@H](C)N1` [Example 179, 3-(5-(difluoromethyl)-1,3,4-thiadiazol-2-yl)-8-((3S,5S)-3,5-dimethylpiperazin-1-yl)-N-(3-methyloxetan-3-yl)imidazo[1,5-a]pyridine-6-sulfonamide]: the IC50 on PARG stood at 0.35 nM. In the data set with HCC1806, the IC50 is 24 nM. Besides, on PXR, the “PXR Activation @30 uM (Fold)” value is 3.2 Fold and the “PXR Activation @30 uM (% Ctrl)” value amounted to 22 % Ctrl.

The values above are taken from patent US20260258035A1, “FIVE-MEMBERED AND SIX-MEMBERED NITROGEN-CONTAINING COMPOUND, AND INTERMEDIATE, PREPARATION METHOD AND USE THEREOF” (HANGZHOU SYNRX THERAPEUTICS BIOMEDICAL TECHNOLOGY CO., LTD., priority 2022, published 2026).
